Molecular target: T1, D(4) dopamine receptor (Homo sapiens, UniProt P21917)
T1 sequence (P21917 whole entry): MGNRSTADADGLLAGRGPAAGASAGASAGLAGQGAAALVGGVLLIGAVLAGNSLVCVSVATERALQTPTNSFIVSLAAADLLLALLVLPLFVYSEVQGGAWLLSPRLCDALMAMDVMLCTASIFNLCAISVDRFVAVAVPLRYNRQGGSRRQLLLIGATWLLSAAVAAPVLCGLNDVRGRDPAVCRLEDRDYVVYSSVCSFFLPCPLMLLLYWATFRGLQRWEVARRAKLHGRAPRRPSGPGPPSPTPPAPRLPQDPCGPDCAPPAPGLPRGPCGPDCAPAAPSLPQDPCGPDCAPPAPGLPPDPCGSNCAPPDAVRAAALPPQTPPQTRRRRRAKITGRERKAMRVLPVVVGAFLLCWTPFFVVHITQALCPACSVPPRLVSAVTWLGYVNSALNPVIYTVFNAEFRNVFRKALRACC
Experiment: Agonist activity at human SP/Myc epitope-tagged dopamine D4 receptor expressed in HEK293T cells assessed as RLuc8-fused Galphai1 activation after 2 mins by BRET assay
Format: cell-based, HEK-293T

## O=C1CCc2ccccc2N1CCCN1CCN(c2ccccc2)CC1
  EC50: 0.158 nM

Source: ChEMBL document CHEMBL4043296 (J Med Chem, 2018)
